According to patent US20240092784A1, “CONDENSED HETEROCYCLIC COMPOUND” (NISSAN CHEMICAL CORPORATION, priority 2020, published 2024):
Structures can show the parent of a compound that is named as a salt.

Target: human SPR (Homo sapiens (Human), UniProt P35270)
Assay: Evaluation Example 2: Measurement of human SPR inhibitory activity (seven concentrations, sepiapterin absorbance at 420 nm)
Type: biochemical
Settings: Evaluation Example 2, seven concentrations 0.14 nM to 100 nM, 240 minutes at room temperature, read-out: IC50
Method in brief: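 His-tagged full-length human SPR (1-261) was expressed in E. coli and the tag removed. Enzyme at 150 ng/mL in 100 mM Tris-HCl pH 7.5/0.01% BSA was mixed with compound (0.14–100 nM, seven points), 120 μM sepiapterin and 160 μM NADPH, both as added-solution concentrations. After 240 min at room temperature, remaining sepiapterin was read at 420 nm to give percent inhibition.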

Chain of human SPR (P35270 whole entry): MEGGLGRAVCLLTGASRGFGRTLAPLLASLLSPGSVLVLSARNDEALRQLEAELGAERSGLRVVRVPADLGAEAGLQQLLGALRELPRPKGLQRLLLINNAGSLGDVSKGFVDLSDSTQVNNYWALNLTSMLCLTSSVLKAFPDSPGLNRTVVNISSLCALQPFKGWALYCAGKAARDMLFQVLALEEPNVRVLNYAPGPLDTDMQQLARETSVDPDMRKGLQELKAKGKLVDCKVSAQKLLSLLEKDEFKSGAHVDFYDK

Compound	IC50
CCCc1cnc(Nc2cc3n(CC(C)(C)C)c(=O)c(C(=O)NC4CC4)c(O)n3n2)cn1 [Synthesis Example 336, N-Cyclopropyl-7-hydroxy-4-neopentyl-5-oxo-2-((5-propylpyrazin-2-yl)amino)-4,5-dihydropyrazolo[1,5-a]pyrimidine-6-carboxamide]	7.13 nM
CC(C)(C)Cn1c(=O)c(C(=O)NC2CC2)c(O)n2nc(Nc3cnc(C(F)F)cn3)cc12 [Synthesis Example 337, N-Cyclopropyl-2-((5-(difluoromethyl)pyrazin-2-yl)amino)-7-hydroxy-4-neopentyl-5-oxo-4,5-dihydropyrazolo[1,5-a]pyrimidine-6-carboxamide]	1.48 nM
CCOc1cnc(Nc2cc3n(CC(C)(C)C)c(=O)c(C(=O)NC4CC4)c(O)n3n2)cn1 [Synthesis Example 338, N-Cyclopropyl-2-((5-ethoxypyrazin-2-yl)amino)-7-hydroxy-4-neopentyl-5-oxo-4,5-dihydropyrazolo[1,5-a]pyrimidine-6-carboxamide]	2.73 nM
Cc1cc(Nc2cc3n(CC(C)(C)C)c(=O)c(C(=O)NC4CC4)c(O)n3n2)ncn1 [Synthesis Example 339, N-Cyclopropyl-7-hydroxy-2-((6-methylpyrimidin-4-yl)amino)-4-neopentyl-5-oxo-4,5-dihydropyrazolo[1,5-a]pyrimidine-6-carboxamide]	4.57 nM
Cc1cncnc1Nc1cc2n(CC(C)(C)C)c(=O)c(C(=O)NC3CC3)c(O)n2n1 [Synthesis Example 340, N-Cyclopropyl-7-hydroxy-2-((5-methylpyrimidin-4-yl)amino)-4-neopentyl-5-oxo-4,5-dihydropyrazolo[1,5-a]pyrimidine-6-carboxamide]	1.92 nM
CC(C)(C)Cn1c(=O)c(C(=O)NC2CC2)c(O)n2nc(N3CC[C@@H](N)C3)cc12 [Synthesis Example 341, (R)-2-(3-Aminopyrrolidin-1-yl)-N-cyclopropyl-7-hydroxy-4-neopentyl-5-oxo-4,5-dihydropyrazolo[1,5-a]pyrimidine-6-carboxamide]	2.6 nM
CC(C)(C)Cn1c(=O)c(C(=O)NC2CC2)c(O)n2nc(N3CC[C@H](N)C3)cc12 [Synthesis Example 342, (S)-2-(3-Aminopyrrolidin-1-yl)-N-cyclopropyl-7-hydroxy-4-neopentyl-5-oxo-4,5-dihydropyrazolo[1,5-a]pyrimidine-6-carboxamide]	2.31 nM
CC(C)(C)Cn1c(=O)c(C(=O)NC2CC2)c(O)n2nc(NC3CCCCC3)cc12 [Synthesis Example 343, 2-(Cyclohexylamino)-N-cyclopropyl-7-hydroxy-4-neopentyl-5-oxo-4,5-dihydropyrazolo[1,5-a]pyrimidine-6-carboxamide]	4.71 nM
CC(C)(C)Cn1c(=O)c(C(=O)NC2CC2)c(O)n2nc(Nc3cnc(C(C)(F)F)cn3)cc12 [Synthesis Example 344, N-Cyclopropyl-2-((5-(1,1-difluoroethyl)pyrazin-2-yl)amino)-7-hydroxy-4-neopentyl-5-oxo-4,5-dihydropyrazolo[1,5-a]pyrimidine-6-carboxamide]	1.69 nM
CC(C)(C)Cn1c(=O)c(C(=O)NC2CC2)c(O)n2nc(Nc3cncc(C(N)=O)n3)cc12 [Synthesis Example 345, 2-((6-Carbamoylpyrazin-2-yl)amino)-N-cyclopropyl-7-hydroxy-4-neopentyl-5-oxo-4,5-dihydropyrazolo[1,5-a]pyrimidine-6-carboxamide]	0.92 nM
Cn1ccc(Nc2cc3n(CC(C)(C)C)c(=O)c(C(=O)NC4CC4)c(O)n3n2)n1 [Synthesis Example 346, N-Cyclopropyl-7-hydroxy-2-((1-methyl-1H-pyrazol-3-yl)amino)-4-neopentyl-5-oxo-4,5-dihydropyrazolo[1,5-a]pyrimidine-6-carboxamide]	1.77 nM
CC(C)(C)Cn1c(=O)c(C(=O)NCC(F)(F)F)c(O)n2nc(Nc3cnccn3)cc12 [Synthesis Example 347, 7-Hydroxy-4-neopentyl-5-oxo-2-(pyrazin-2-ylamino)-N-(2,2,2-trifluoroethyl)-4,5-dihydropyrazolo[1,5-a]pyrimidine-6-carboxamide]	1.87 nM
CC(C)Cn1c(=O)c(C(=O)NCC(F)(F)F)c(O)n2nc(Nc3cnccn3)cc12 [Synthesis Example 348, 7-Hydroxy-4-isobutyl-5-oxo-2-(pyrazin-2-ylamino)-N-(2,2,2-trifluoroethyl)-4,5-dihydropyrazolo[1,5-a]pyrimidine-6-carboxamide]	2.84 nM
CC(C)(C)Cn1c(=O)c(C(=O)NC2CC2)c(O)n2nc(Nc3cnc(C(C)(C)O)cn3)cc12 [Synthesis Example 349, N-Cyclopropyl-7-hydroxy-2-((5-(2-hydroxypropan-2-yl)pyrazin-2-yl)amino)-4-neopentyl-5-oxo-4,5-dihydropyrazolo[1,5-a]pyrimidine-6-carboxamide]	1.36 nM
O=C(NC1CC1)c1c(O)n2nc(Nc3cnccn3)cc2n(CC2CCOCC2)c1=O [Synthesis Example 350, N-Cyclopropyl-7-hydroxy-5-oxo-2-(pyrazin-2-ylamino)-4-((tetrahydro-2H-pyran-4-yl)methyl)-4,5-dihydropyrazolo[1,5-a]pyrimidine-6-carboxamide]	0.75 nM
CC(C)(C)Cn1c(=O)c(C(=O)NC2CC2)c(O)n2nc(Nc3ccnc(C(N)=O)n3)cc12 [Synthesis Example 351, 2-((2-Carbamoylpyrimidin-4-yl)amino)-N-cyclopropyl-7-hydroxy-4-neopentyl-5-oxo-4,5-dihydropyrazolo[1,5-a]pyrimidine-6-carboxamide]	0.9 nM
CC(C)(C)Cn1c(=O)c(C(=O)NC2CC2)c(O)n2nc(Nc3cnc(C(=O)NCC(F)(F)F)cn3)cc12 [Synthesis Example 352, N-Cyclopropyl-7-hydroxy-4-neopentyl-5-oxo-2-((5-((2,2,2-trifluoroethyl)carbamoyl)pyrazin-2-yl)amino)-4,5-dihydropyrazolo[1,5-a]pyrimidine-6-carboxamide]	1.04 nM
CC(C)(C)Cn1c(=O)c(C(=O)NC2CC2)c(O)n2nc(Nc3cnc(C(=O)NCC(F)F)cn3)cc12 [Synthesis Example 353, N-Cyclopropyl-2-((5-((2,2-difluoroethyl)carbamoyl)pyrazin-2-yl)amino)-7-hydroxy-4-neopentyl-5-oxo-4,5-dihydropyrazolo[1,5-a]pyrimidine-6-carboxamide]	0.82 nM
CC(C)(C)Cn1c(=O)c(C(=O)NC2CC2)c(O)n2nc(Nc3cnc(C(=O)NCC(C)(C)O)cn3)cc12 [Synthesis Example 354, N-Cyclopropyl-7-hydroxy-2-((5-((2-hydroxy-2-methylpropyl)carbamoyl)pyrazin 2-yl)amino)-4-neopentyl-5-oxo-4,5-dihydropyrazolo[1,5-a]pyrimidine-6-carboxamide]	0.86 nM
CC(C)(C)Cn1c(=O)c(C(=O)NC2CC2)c(O)n2nc(Nc3cnc(C(=O)N4CCC(F)(F)CC4)cn3)cc12 [Synthesis Example 355, N-Cyclopropyl-2-((5-(4,4-difluoropiperidine-1-carbonyl)pyrazin-2-yl)amino)-7-hydroxy-4-neopentyl-5-oxo-4,5-dihydropyrazolo[1,5-a]pyrimidine-6-carboxamide]	1.1 nM
CC(C)(C)Cn1c(=O)c(C(=O)NC2CC2)c(O)n2nc(Nc3cncc(F)n3)cc12 [Synthesis Example 356, N-Cyclopropyl-2-((6-fluoropyrazin-2-yl)amino)-7-hydroxy-4-neopentyl-5-oxo-4,5-dihydropyrazolo[1,5-a]pyrimidine-6-carboxamide]	1.16 nM
Cn1ccnc1Nc1cc2n(CC(C)(C)C)c(=O)c(C(=O)NC3CC3)c(O)n2n1 [Synthesis Example 357, N-Cyclopropyl-7-hydroxy-2-((1-methyl-1H-imidazol-2-yl)amino)-4-neopentyl-5-oxo-4,5-dihydropyrazolo[1,5-a]pyrimidine-6-carboxamide]	1.5 nM
CN(CC#N)C(=O)c1cnc(Nc2cc3n(CC(C)(C)C)c(=O)c(C(=O)NC4CC4)c(O)n3n2)cn1 [Synthesis Example 358, 2-((5-((Cyanomethyl)(methyl)carbamoyl)pyrazin-2-yl)amino)-N-cyclopropyl-7-hydroxy-4-neopentyl-5-oxo-4,5-dihydropyrazolo[1,5-a]pyrimidine-6-carboxamide]	0.87 nM
CC(C)(C)Cn1c(=O)c(C(=O)NC2CC2)c(O)n2nc(Nc3cnc(C(=O)N4CCC(C#N)CC4)cn3)cc12 [Synthesis Example 359, 2-((5-(4-Cyanopiperidine-1-carbonyl)pyrazin-2-yl)amino)-N-cyclopropyl-7-hydroxy-4-neopentyl-5-oxo-4,5-dihydropyrazolo[1,5-a]pyrimidine-6-carboxamide]	0.88 nM
CC(C)(C)Cn1c(=O)c(C(=O)NC2CC2)c(O)n2nc(Nc3cnc(C(=O)N4CC[C@H](O)C4)cn3)cc12 [Synthesis Example 360, (S)-N-Cyclopropyl-7-hydroxy-2-((5-(3-hydroxypyrrolidine-1-carbonyl)pyrazin-2-yl)amino)-4-neopentyl-5-oxo-4,5-dihydropyrazolo[1,5-a]pyrimidine-6-carboxamide]	0.76 nM
CC(C)(C)Cn1c(=O)c(C(=O)NC2CC2)c(O)n2nc(Nc3ncco3)cc12 [Synthesis Example 361, N-Cyclopropyl-7-hydroxy-4-neopentyl-2-(oxazol-2-ylamino)-5-oxo-4,5-dihydropyrazolo[1,5-a]pyrimidine-6-carboxamide]	1.42 nM
CN(C)/C=N/c1cc2n(CC(C)(C)C)c(=O)c(C(=O)NC3CC3)c(O)n2n1 [Synthesis Example 362, (E)-N-Cyclopropyl-2-(((dimethylamino)methylene)amino)-7-hydroxy-4-neopentyl-5-oxo-4,5-dihydropyrazolo[1,5-a]pyrimidine-6-carboxamide hydrochloride]	1.48 nM
